The compounds below were run against T1, N-formyl peptide receptor 2 (Homo sapiens, UniProt P25090) (assay: FPRL1 fluorescent ligand binding inhibitors, dose response, cell-based, flow cytometry, Ki from IC50 (AID 766)). Details: not given.
T1 sequence (P25090 whole entry): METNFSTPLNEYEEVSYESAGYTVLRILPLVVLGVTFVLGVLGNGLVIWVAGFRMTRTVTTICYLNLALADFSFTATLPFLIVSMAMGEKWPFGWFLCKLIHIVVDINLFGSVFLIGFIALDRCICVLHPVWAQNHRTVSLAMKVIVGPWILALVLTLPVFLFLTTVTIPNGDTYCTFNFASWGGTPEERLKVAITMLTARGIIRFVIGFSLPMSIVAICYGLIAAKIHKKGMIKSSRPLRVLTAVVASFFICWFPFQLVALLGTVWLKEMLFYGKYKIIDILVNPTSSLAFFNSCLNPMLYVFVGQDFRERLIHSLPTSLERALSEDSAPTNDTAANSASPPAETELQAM

Compared with `COc1ccc(-c2cn3cccnc3n2)cc1NC(=O)C1CCCC1` [MLS000045945], `COc1ccc(-c2cn3cccnc3n2)cc1NC(=O)C1CC1` [MLS000045944] is lower in IC50: > 66.1 µM for the first, 6.7 µM for the second.

`CCOC(=O)N1CCN(c2nc(-c3ccc(OC)c(OC)c3)cc(C(F)(F)F)n2)CC1` [4-[4-(3,4-dimethoxyphenyl)-6-(trifluoromethyl)-2-pyrimidinyl]-1-piperazinecarboxylic acid ethyl ester] and `COc1ccc(-c2cc(C(F)(F)F)nc(N3CCN(c4ccccc4)CC3)n2)cc1OC` [4-(3,4-dimethoxyphenyl)-2-(4-phenyl-1-piperazinyl)-6-(trifluoromethyl)pyrimidine] cannot be ordered by IC50: > 50.5 µM for the first, > 50 µM for the second.

Going from `CCC(=O)Nc1cc(-c2cn3cccnc3n2)ccc1OC` [N-(5-imidazo[1,2-a]pyrimidin-2-yl-2-methoxy-phenyl)propanamide] to `COc1ccc(-c2cn3cccnc3n2)cc1NC(=O)C(C)C` [N-(5-imidazo[1,2-a]pyrimidin-2-yl-2-methoxy-phenyl)-2-methyl-propanamide], the IC50 falls from 10.7 µM to 3.6 µM (3-fold).

`COc1ccc(-c2cc(C(F)(F)F)nc(N3CCN(C(c4ccccc4)c4ccccc4)CC3)n2)cc1OC` [2-(4-benzhydrylpiperazin-1-yl)-4-(3,4-dimethoxyphenyl)-6-(trifluoromethyl)pyrimidine] and `O=C(N1CCN(c2nc(-c3ccccc3)c3ccccc3n2)CC1)C(F)(F)F` [2,2,2-trifluoro-1-[4-(4-phenyl-2-quinazolinyl)-1-piperazinyl]ethanone] cannot be ordered by IC50: > 41.6 µM for the first, > 57.5 µM for the second.

Compound `COc1ccc(CC(=O)Nc2cc(-c3cn4cccnc4n3)ccc2OC)cc1` [N-(5-imidazo[1,2-a]pyrimidin-2-yl-2-methoxy-phenyl)-2-(4-methoxyphenyl)acetamide] has an IC50 of 9.9 µM.

Same assay, conditions: inactive by the depositor's call

Compound `COc1ccc(-c2cc(C(F)(F)F)nc(N3CCN(Cc4ccccc4)CC3)n2)cc1OC` [2-(4-benzylpiperazin-1-yl)-4-(3,4-dimethoxyphenyl)-6-(trifluoromethyl)pyrimidine] has an IC50 of 16.5 µM.
